# Experiments:
# [1] = test system: sensitive L1210 murine leukemia cells; assay: Multiple drug resistance, 3H-Thymidine uptake; format: cell-based; settings: Mus musculus, daunorubicin alone
# Procedure: (§1) Multiple drug resistance (MDR) was tested in vitro using resistant and sensitive L1210 murine leukemia cells.
# (§2) The final concentration of daunorubicin in each well was 0, 0.3, 1, 3, 10, 30, 100 or 1000 ng/ml. […] Fifty microliters of each daunorubicin concentration was added to one well of a flat bottom 96-well culture plate. […] Each drug combination was tested in triplicate.
# (§3) The resistant and sensitive cells to be added to each well were grown overnight in a CO2 incubator at 37° C. in RPMI-1640 (10% fetal calf serum and 1% pen-strep). The cells were centrifuged at 1000 rpm for 10 minutes. The cell pellet was resuspended in RPMI-1640 (20% fetal calf serum and 2% pen-strep) and adjusted to 1×10^5 cells/ml. The cells were then added to the wells (100 μl (1×10^4 cells)/well) containing the drug combinations and incubated for 24 hours at 37° C. in a CO2 incubator. Positive control wells contained only cells and media and negative control wells contained cells, media, and 20 μl of 1.5M Tris buffer.
# (§4) After 20 hours of incubation, the cells were pulsed with 0.5μ Cu of ^3 H-Thymidine per well. The samples were incubated for another 4 hours. The cells in each well were then harvested using a Skatron Harvester and counted in a beta liquid scintillation counter (LKB).
# [2] = test system: resistant L1210 murine leukemia cells; assay: Multiple drug resistance, 3H-Thymidine uptake; format: cell-based; settings: Mus musculus, L1210, read-out: IC50 in Resistant Cells
# Procedure: as §1, §2, §3, §4
structure (smiles),measurement,setting,value
COc1cccc2c1C(=O)c1c(O)c3c(c(O)c1C2=O)C[C@@](O)(C(C)=O)C[C@@H]3O[C@H]1C[C@H](N)[C@H](O)[C@H](C)O1 [Daunorubicin],IC50,[1],0.47 µg/mL
same,IC50,[2],0.722 µg/mL
